Data as given in patent US7964623B2, “Tricyclic benzopyrane compound” (Nissan Chemical Industries Ltd., priority 2004, dated 2011).

How the values were obtained:
[1] = tested on: atrium; assay: Effects on the atrial effective refractory period (S1-S2 extrastimulus technique during bilateral vagal nerve stimulation) in anesthetized beagles; format: in vivo; settings: intravenous, from 5 minutes after administration, basic cycle length 300 msec
Experimental: Effects on the Effective Refractory Period
Beagles were anesthetized with pentobarbital sodium and thoracotomy was done along the median line under a respirator and the incision was made on the pericardium to expose the heart. An electrocardiogram (ECG) was recorded using bipolar electrodes attached to the surface of the right atrial free wall, right atrial auricle, and right ventricular free wall. The vagal nerves were stimulated using an electrostimulation device with Nichrome wires inserted into the vagal nerves in the neck bilaterally. The conditions for electrostimulation to the vagal nerves were set such that the RR intervals on ECG were prolonged by about 100 msec compared with those before the stimulation was started.
Atrial and ventricular effective refractory periods were determined by S1-S2 extrastimulus technique at basic cycle length of 300 msec during bilateral vagal nerve stimulation, using programmable electric stimulator. A train of 10 basic stimuli (S1) was followed by a premature extrastimulus (S2) at 2 times diastolic threshold.
For evaluation of drug effects, the atrial and ventricular effective refractory periods were determined before drug administration, then respective compound was administrated intravenously at the dose of 0.3 mg/kg or 0.6 mg/kg, and the atrial and ventricular effective refractory periods were determined from 5 minutes after the administration.
The results were shown as the prolongation time on the atrial and ventricular effective refractory periods, i.e. [effective refractory period after drug administration]−[effective refractory period before drug administration] (msec).

Compound | melting point | Atrial Refractory Period (prolongation time on the atrial effective refractory period) ([1]; 0.6 mg/kg) [ms] | Atrial Refractory Period (prolongation time on the atrial effective refractory period) ([1]; 0.3 mg/kg) [ms]
Cc1cc(Cl)nc2cc3c(cc12)OC(C)(C)[C@@H](O)[C@@H]3NCCc1ccccc1.O=C(O)/C=C\C(=O)O (relative stereo) [Synthesis Example 50, (3S*,4R*)-7-chloro-2,2,9-trimethyl-4-[(2-phenylethyl)amino]-3,4-dihydro-2H-pyrano[2,3-g]quinolin-3-ol 1 maleate] | 240 to 242 °C |  | 
Cc1cnc2cc3c(cc2c1C)OC(C)(C)C(O)C3NCCc1ccccc1.O=C(O)/C=C\C(=O)O (racemic) [Synthesis Example 3, (±)-trans-2,2,8,9-Tetramethyl-4-[(2-phenylethyl)amino]-3,4-dihydro-2H-pyrano[2,3-g]quinolin-3-ol 1 maleate] | 199 to 203 °C |  | 
CC1(C)Oc2cc3c(cc2C(NCCc2ccccc2)C1O)N(Cc1ccccc1)C(=O)C3 (stereo not drawn) [Synthesis Example 90, 1-Benzyl-7-hydroxy-6,6-dimethyl-8-phenetylamino-3,6,7,8-tetrahydro-1H-pyrano[2,3-f]indole-2-one] | 195 °C (dec.) |  | 
Cc1cc(Cl)[n+]([O-])c2cc3c(cc12)OC(C)(C)[C@H](O)[C@H]3NCCc1ccc(F)cc1.Cl (relative stereo) | 193 to 198 °C (dec.) |  | 
Cc1cc(C#N)nc2cc3c(cc12)OC(C)(C)C(O)C3NCCc1ccccc1.O=C(O)/C=C\C(=O)O (racemic) [Synthesis Example 7, (±)-trans-3-Hydroxy-2,2,9-trimethyl-4-[(2-phenylethyl)amino]-3,4-dihydro-2H-pyrano[2,3-g]quinoline-7-carbonitrile 1 maleate] | 218 to 220 °C (dec.) | 25 | 
Cc1cc(Cl)[n+]([O-])c2cc3c(cc12)OC(C)(C)[C@H](O)[C@H]3NCCc1ccccc1.Cl (relative stereo) | 174 to 179 °C (dec.) |  | 
Cc1cc(O)nc2cc3c(cc12)OC(C)(C)[C@H](O)[C@H]3NCCc1ccccc1.O=C(O)/C=C\C(=O)O (relative stereo) [Synthesis Example 85, (3R*,4S*)-2,2,9-trimethyl-4-[(2-phenylethyl)amino)]-3,4-dihydro-2H-pyrano[2,3-g]quinolin-3,7-diol 3/2 maleate] | 184 to 188 °C (dec.) |  | 
Cc1ccc2cc3c(cc2n1)[C@H](NCCc1ccccc1)[C@@H](O)C(C)(C)O3.O=C(O)/C=C\C(=O)O (relative stereo) [Synthesis Example 13, (3R*,4S*)-2,2,7-trimethyl-4-[(2-phenylethyl)amino]-3,4-dihydro-2H-pyrano[2,3-g]quinolin-3-ol 1 maleate] | 214 to 217 °C (dec.) |  | 
Cc1cc(C)c2cc3c(cc2n1)[C@@H](NCCc1ccccc1)[C@H](O)C(C)(C)O3.O=C(O)/C=C\C(=O)O (relative stereo) [Synthesis Example 51, (3R*,4R*)-2,2,7,9-tetramethyl-4-[(2-phenethyl)amino]-3,4-dihydro-2H-pyrano[2,3-g]quinolin-3-ol 1 maleate] | 215 to 216 °C (dec.) |  | 
Cc1cc(Cl)nc2cc3c(cc12)OC(C)(C)C(O)C3NCCc1ccccc1.O=C(O)/C=C\C(=O)O (racemic) [Synthesis Example 6, (±)-trans-7-Chloro-2,2,9-trimethyl-4-[(2-phenylethyl)amino]-3,4-dihydro-2H-pyrano[2,3-g]quinolin-3-ol 1 maleate] | 221 to 226 °C (dec.) | 20 | 
Cc1cc(CN)nc2cc3c(cc12)OC(C)(C)[C@H](O)[C@H]3NCCc1ccccc1.O=C(O)/C=C\C(=O)O (relative stereo) [Synthesis Example 83, (3R*,4S*)-7-aminomethyl-2,2,9-trimethyl-4-[(2-phenylethyl)amino]-3,4-dihydro-2H-pyrano[2,3-g]quinolin-3-ol 2 maleate] | 136 to 140 °C |  | 
CC1(C)Oc2ccc3nc(Cl)ccc3c2[C@@H](NCCc2ccccc2)[C@@H]1O (racemic) [Synthesis Example 9, (±)-trans-8-Chloro-3,3-dimethyl-1-[(2-phenylethyl)amino]-2,3-dihydro-1H-pyrano[3,2-f]quinolin-2-ol] | 141 to 143 °C |  | 
CC1(C)Oc2ccc3ncccc3c2C(NCCc2ccccc2)C1O (racemic) [Synthesis Example 8, (±)-trans-3,3-Dimethyl-1-[(2-phenylethyl)amino]-2,3-dihydro-1H-pyrano[3,2-f]quinolin-2-ol] | 180 to 182 °C | 23 | 

Second part, led by results:

melting point | Compound | Atrial Refractory Period (prolongation time on the atrial effective refractory period) ([1]; 0.6 mg/kg) [ms] | Atrial Refractory Period (prolongation time on the atrial effective refractory period) ([1]; 0.3 mg/kg) [ms]
144 to 147 °C | Cc1cc(C)c2cc3c(cc2n1)C(NCCc1ccccc1)C(O)C(C)(C)O3 (racemic) [Synthesis Example 2, (±)-trans-2,2,7,9-Tetramethyl-4-[(2-phenylethyl)amino]-3,4-dihydro-2H-pyrano[2,3-g]quinolin-3-ol] | 21 | 
226 to 230 °C (dec.) | CCCCCN[C@H]1c2cc3c(cc2OC(C)(C)[C@@H]1O)c(C)cc(Cl)[n+]3[O-].Cl (relative stereo) |  | 
318 to 320 °C (dec.) | Cc1cc(Cl)nc2cc3c(cc12)OC(C)(C)[C@H](O)[C@H]3NCCC1CCOCC1.Cl (relative stereo) |  | 
258 to 259 °C (dec.) | CC1(C)Oc2cc3nccnc3cc2[C@H](NCCC2CCCCC2)[C@H]1O.Cl (relative stereo) [Synthesis Example 69, (3R*,4S*)-4-[(2-cyclohexylethyl)amino)]-2,2-dimethyl-3,4-dihydro-2H-pyrano[2,3-g]quinoxalin-3-ol hydrochloride] |  | 37
294 to 295 °C (dec.) | Cc1cc(Cl)nc2cc3c(cc12)OC(C)(C)[C@H](O)[C@H]3NCCC1CCCCC1.Cl (relative stereo) [Synthesis Example 53, (3R*,4S*)-7-chloro-2,2,9-trimethyl-4-[(2-cyclohexylethyl)amino]-3,4-dihydro-2H-pyrano[2,3-g]quinolin-3-ol hydrochloride] |  | 30
187 to 192 °C (dec.) | CC1(C)Oc2cc3cccnc3cc2[C@H](NCCc2ccccc2)[C@H]1O.O=C(O)/C=C\C(=O)O (relative stereo) [Synthesis Example 77, (3R*,4S*)-2,2-dimethyl-4-[(2-phenylethyl)amino]-3,4-dihydro-2H-pyrano[2,3-g]quinolin-3-ol 1 maleate] |  | 25
147 to 152 °C | Cc1cc(CO)nc2cc3c(cc12)OC(C)(C)[C@H](O)[C@H]3NCCc1ccc(F)cc1 (relative stereo) [Synthesis Example 76, (3R*,4S*)-4-{[2-(4-fluorophenyl)ethyl]amino}-7-hydroxymethyl-2,2,9-trimethyl-3,4-dihydro-2H-pyrano[2,3-g]quinolin-3-ol] |  | 
209 to 212 °C (dec.) | CCCCCN[C@H]1c2cc3nccnc3cc2OC(C)(C)[C@@H]1O.Cl (relative stereo) [Synthesis Example 63, (3R*,4S*)-2,2-dimethyl-4-pentylamino-3,4-dihydro-2H-pyrano[2,3-g]quinoxalin-3-ol hydrochloride] |  | 23
163 to 169 °C (dec.) | CC1(C)Oc2cc3c(CO)ccnc3cc2[C@H](NCCc2ccccc2)[C@H]1O.O=C(O)/C=C\C(=O)O (relative stereo) [Synthesis Example 84, (3R*,4S*)-9-hydroxymethyl-2,2-dimethyl-4-[(2-phenylethyl)amino)]-3,4-dihydro-2H-pyrano[2,3-g]quinolin-3-ol 1 maleate] |  | 
